Data reported in patent publication US20250000801A1, “DAROLUTAMIDE PHARMACEUTICAL COMPOSITION, PREPARATION METHOD THEREFOR AND USE THEREOF” (Sinotherapeutics Inc., priority 2021, published 2025).
Values after ≈ are worked out from the molar mass of the structure shown. Read-outs that look alike come from different tables or passages of the source.

Experiments:
[1] = cited from earlier work
[2] = system: non-metastatic castration-resistant prostate cancer (nmCRPC); settings: Phase III, cited from earlier work
[3] = Determination of dissolution, USP II method (paddle method); type: physicochemical; settings: phosphate buffer pH 6.8, 1000 ml, 75 rpm
Procedure: In the following examples, the dissolution of the formulation is determined using the USP II method (paddle method) in the US Pharmacopoeia, with specific parameters as follows.
According to the above procedures, the dissolutions of Darolutamide in phosphate buffer, pH 6.8 were determined and the results were shown in Table 9.

[4] = cited from earlier work; remark: listed apart in the source
physchem = settings: 37.2 °C, pH 6.8, aqueous buffer, thermodynamic from solid
Procedure: About 200 mg of sample is weighted into a 50 ml shaking flask and then 50 ml of medium with pH of 6.8 is added. The shaking flask is mixed well and placed in a shaker. The shaker temperature is set as 37.2° C. and the rotation speed is set as 50 rpm. The sample is taken at 4 hours and 0.45 μM filter membrane is used for filtration to collect filtrate. High-performance liquid chromatography is used for determination with wavelength at 286 nm.

[5] = single dose pharmacokinetic study

In the case of `CC(O)c1cc(C(=O)N[C@@H](C)Cn2ccc(-c3ccc(C#N)c(Cl)c3)n2)n[nH]1` (stereo partly drawn) [Darolutamide, N-[(1S)-2-[3-(3-chloro-4-cyanophenyl)-1H-pyrazol-1-yl]-1-methylethyl]-5-(1-hydroxyethyl)-1H-pyrazole-3-carboxamide], the BCS classification ([1]; low solubility and high permeability) is listed as “BCS Class II”, the “solubility in aqueous media” value ([1]; pH 1-6.8) is listed as 14 to 23 µg/mL and the “reduction of the risk of disease metastasis or death” value ([2]; Darolutamide combined with ADT vs placebo combined with ADT) is listed as 59%. For the same molecule, the “median metastasis free survival (MFS)” value ([2]; Darolutamide combined with ADT) was 40.4 months, the Dissolution ([3]; 5 min) was 7% and the Dissolution ([3]; 15 min) was 10%. For the same molecule, the Dissolution ([3]; 30 min) was 9%, the Dissolution ([3]; 45 min) was 12% and the bioavailability ([4]; 300 mg, fasting state) was “about 30%”. The “coefficient of variation (CV %) of AUC(0-4)” value ([4]; administration dosage of 300 mg) was 69.6%, the “coefficient of variation (CV %) of AUC(0-4)” value ([4]; administration dosage of 600 mg) was 41.4% and the “increase of AUC(0-4) in feeding state” value ([4]; after administration of 300 mg or 600 mg) was 2.5 fold. For the same molecule, the “increase of bioavailability in feeding state” value ([4]; single dose administration of 300 mg) was 2.5 fold, the “increase of bioavailability in feeding state” value ([4]; single dose administration of 600 mg) was 2.8 fold and the end half-life [4, 5] was 10 to 15 h. For the same molecule, the “median Tmax” value [4, 5] was 3 to 6 h and the solubility at 4 h (physchem) was 24.9 µg/mL (≈ 62.4 µM).
